According to US20250213654A1, “PEPTIDES AND METHODS FOR USE IN TREATING PAIN” (TAFALGIE THERAPEUTICS, priority 2022, published 2025):

How the values were obtained:
[1] = test system: Spared Nerve Injury (SNI) model of neuropathic pain; assay: Spared Nerve Injury (SNI) model of neuropathic pain, Von Frey up-down mechanical threshold; type: in vivo, mice; settings: SNI day 14, per os, 30 μg/mL solution in HPMC vehicle; peptides significant as soon as 1 hour (p value<0.01)
[2] = test system: injury-induced mechanical hypersensitivity; settings: cited from earlier work
[3] = test system: spinal lamina II interneurons; settings: spinal lamina II interneurons (WO2014180853); cited from earlier work

Substance: TAFA4 FL: human TAFA-4 full length mature protein (SEQ ID NO: 5) of 105 amino acid residues
- antalgic effect (reversal of mechanical threshold) [1]: did not show significant antalgic effect
- effect on prolonged nerve injury-induced mechanical hypersensitivity of TAFA-4 gene deleted mice ([2]; intrathecal injection (Delfini et al., 2013)): reversed
- effect on mechanical hypersensitivity ([2]; male and female mice, intrathecal and subcutaneous administration (WO2014180853)): reverses inflammatory, postoperative and nerve injury-induced mechanical hypersensitivity
- effect on nerve injury-induced neuronal sensitization [3]: can reverse nerve injury-induced neuronal sensitization of the spinal lamina II interneurons
